The record followed here is patent US11285103B2, “Degradable hydrogel under physiological conditions” (priority 2015, dated 2022).

Data set [1] can be described thus: Determination of half life in PBS (cleavage of biodegradable linkers from model peptides). Type of data set: physicochemical. Conditions: linker X on N terminus of model peptide X-[…]; 1 mg/mL in PBS, 37° C.; read-out: t1/2 (h), cleavage of biodegradable linker (converted). The protocol: Peptides GIVEQAA-NH2 (SEQ ID NO: 3) and […] (SEQ ID NO: 2), two mimics of the N-terminus section of insulin A chain, were used as model peptides to determine the half lives of various biogradable linkers linked to the N-terminus of the peptides through an amide bond. The model peptides were prepared with Fmoc chemistry, cleaved by TFA and purified by preparative RP-HPLC.
A model peptide capped with a biodegradable linker was dissolved at 1 mg/mL concentration in PBS and the solution was incubated at 37° C. in a water bath. Samples were collected for analysis at different time points (e.g., 8 h, 16 h, 24 h, 48 h, 72 h, 96 h, 120 h). […] The cleavage of a biodegradable linker was quenched by lowering pH to 2 by addition of 0.1% TFA solution. RP-HPLC was used to monitor the cleavage reactions and the cleavage rates were quantitatively studied by measuring the peak areas of model peptides when they are capped with biodegradable linkers and when linkers are released. […]
The rate of cleavage was determined for the model peptides capped with respective biodegradable linkers. The concentrations of the model peptides capped with biodegradable linkers and the released model peptides were determined by their respective peak areas. […] The cleavage half life of a peptide capped with a biodegradable linker was calculated by using the equation and the slope derived from this plot. […]

A short description of data set [2]: Determination of half life in serum (cleavage of biodegradable linkers from model peptide). Type of data set: in vitro ADME. Conditions: serum (100%); linker X on N terminus of model peptide X-G-dI-dV-dE-dQ-dA-dA; 100% serum, 37° C.; read-out: t1/2 (h), cleavage of biodegradable linker (converted). Here is the method:
Model peptides X-G-dI-dV-dE-dQ-dA-dA (SEQ ID NO:4) capped with various biodegradable linkers were used in the assay. D amino acids were used to prevent other enzymatic cleavage of the model peptides. The peptides were dissolved in 100% serum and incubated at 37° C. Samples were collected for analysis at different time points (e.g., 8 h, 16 h, 24 h, 48 h, 72 h, 96 h, and 120 h).
The rate of cleavage was determined for the model peptides capped with respective biodegradable linkers. The concentrations of the model peptides capped with biodegradable linkers and the released model peptides were determined by their respective peak areas. The first order dissociation rate constant of a model peptide capped with a biodegradable linker was determined by plotting the logarithm of [starting model peptide capped with the biodegradable linker]/[remaining model peptide capped with the biodegradable linker] at various time intervals. The cleavage half life of a peptide capped with a biodegradable linker was calculated by using the equation and the slope derived from this plot.

Another data set relates to diabetic rats. Kind of data set: Blood glucose change in streptozotocin-induced diabetic rats. Type of data set: in vivo, Wistar rats. The note with it: 40 nmol/kg daily. Here is the method:
9-week-old male Wistar rats, average weight 240±10 g, were housed in polypropylene cages and maintained at constant temperature and humidity on a 12 hour light/dark cycle, and allowed access to food and water ad libitum. When diabetes was induced, rats were fasted for 48 hours and intraperitoneally injected with streptozotocin (60 mg/kg, dissolved in […] sodium citrate buffer, pH 4.5), then food was provided. Blood glucose was checked after three days. Animals with blood glucose above 250 mg/dl was considered diabetic, and the rats with blood glucose higher than 450 mg/dl were used in the experiment. Recombinant insulin (24 nmol/kg) was injected daily to maintain blood glucose no higher than 550 mg/dl.
The insulin hydrogels were prepared according to the methods in Examples 8 and 20, but the hydrogel used in this example was loaded only with insulin. The actual insulin content was calculated with the method in Example 18.
Rats showing hyperglycemia (400-450 mg/dl) were divided into 3 groups, each containing 8 rats. Rats in the first group were intraperitoneally injected saline (100 μL). Rats in the second group were intraperitoneal injected insulin detemir (40 nmol/kg) daily. Rats in the third group were Injected hydrogel (75 nmol/kg, calculated according to the actual amount of human insulin in the hydrogel). […]

Numbered stars: 1 amine (or outer) side, 2 acyl side, 3 side chain; on linkers, the order of the positions; unused ones are H or OH. Square brackets hold non-standard residues; d marks the D form. Peptide text beside a SMILES is read from it. * marks the point of attachment. Fmoc = O=C(OCC1c2ccccc2-c2ccccc21)*; X1 = NCCc1cc(CN[*:1])ccc1C(=O)[*:2]

Turning to `CC1NCc2cc(CN)ccc2C1=O` (stereo not drawn), in data set [1], the half-life at 1 mg/mL was 264 h.
As for `CC[C@@H](C)[C@@H](NC(=O)CNC(=O)c1ccc(CNC(=O)OCC2c3ccccc3-c3ccccc32)cc1CCN)C(=O)N[C@@H](C(=O)N[C@H](CCC(=O)O)C(=O)N[C@H](CCC(N)=O)C(=O)N[C@H](C)C(=O)N[C@H](C)C(=O)O)C(C)C` (Fmoc-[X1]G[dI][dV][dE][dQ][dA][dA]-OH), the half-life in data set [2] is 735 h.
With Insulin detemir, in the data set with diabetic rats, the blood glucose lowering result is on record as “cannot effectively lower blood glucose”.
